Laboratory results from patent publication US9539273B2, “Targeted delivery of anti-fungal agents” (EDH Biotech Corp, priority 2013, dated 2017).

Test: Binding of stilbene derivatives to chitosan, dissociation constants by indirect difference spectroscopy
Conditions: qualitative statement on binding affinity
Text: Binding studies of stilbene derivatives to chitosan or MHEC

| SMILES | binding to chitosan (in words) |
| --- | --- |
| Nc1ccc(C=Cc2ccc(N)cc2S(=O)(=O)O)c(S(=O)(=O)O)c1 [4,4′-diaminostilbene-2,2′-disulfonic acid] | neither the core structure itself nor its bis(dichlorotriazine) derivative (R^4a═R^6a═R^4b═R^6b═Cl) binds to chitosan |
| O=S(=O)(O)c1cc(Nc2nc(NCCO)nc(Nc3ccccc3)n2)ccc1C=Cc1ccc(Nc2nc(NCCO)nc(Nc3ccccc3)n2)cc1S(=O)(=O)O [OB85] | no significant improvement in binding |
| O=S(=O)(O)c1cc(Nc2nc(Nc3ccccc3)nc(N(CCO)CCO)n2)ccc1/C=C/c1ccc(Nc2nc(Nc3ccccc3)nc(N(CCO)CCO)n2)cc1S(=O)(=O)O [calcofluor white] | no significant improvement in binding |
